Results from US7067251B2 (priority 2000, dated 2006).

Test system: C3H10T½ cells
Format: cell-based, murine

NC(=O)NO [HU, hydroxyurea]
Type X collagen synthesis: induces type X collagen synthesis
